The test concerns the target Protein kinase C alpha type (Homo sapiens) (UniProt P17252). Put plainly: Effect on diacylglycerol induced (DAG) PKC activation at 1-10 uM. Type of test: functional.

Molecules are shown by their SMILES.

`O=C(O)CCCCCCC/C=C/CCCCCCCCOc1cc(C2(C(F)(F)F)N=N2)ccc1I` registered an Activity of 40%.

These data come from ChEMBL document CHEMBL1145770, “Efficient synthesis of 3-trifluoromethylphenyldiazirinyl oleic acid derivatives and their biological activity for protein kinase C” (Bioorg Med Chem Lett, 2003).
